Measurements published in US7960352B2, “Anti-cancer activity of Androsace umbellata Merr. extract and contained triterpene saponin” (Sungkyunkwan University Foundation for Corporate …, priority 2005, dated 2011).
≈ marks a conversion by molar mass, not a printed value.

Experiments:
A549 (lung cancer cells) = experiment: Inhibition of growth of tumor cells (SRB assay), A549; format: cell-based; settings: 0.01-100 μg/mL, cultured 48 hours
Description: (§1) Cells were cultured in Dulbecco's modified Eagle's medium (hereunder referred to as DMEM) containing 5-10% fetal bovine serum and L-glutamine in an incubator of 37° C. and 5% CO2. Adherent cells were suspended using a trypsin-EDTA solution and isolated and collected for testing.
(§2) The cells were cultured on a 96-well plate, 5×10^3-10^4 cells each. After treating with the extract and the active ingredient at a concentration of 0, 0.01, 0.1, 1, 10 and 100 μg/mL, the cells were cultured for 48 hours. After culturing for […], the culture medium was removed from each well and 200 μL of 10% TCA (trichloroacetic acid) was added. The cells were fixed to the bottom of the plate by letting alone at 4° C. for 1 hour. After fixation, the plate was washed with distilled water for 5-6 times to remove the remaining TCA solution and then completely dried. To the plate was added 200 μL of a staining solution per each well, which was prepared by dissolving 0.4% SRB solution in 1% acetic acid solution. After 30 minutes' staining, the plate was washed with 1% acetic acid solution for 5-6 times to remove excess SRB. The plate was dried at room temperature and 200 μL of 10 mM trisma base solution (unbuffered) was added per each well. After 10 minutes' of shaking using a titer plate shaker to elute out the staining solution, light absorbance was measured at 540 nm using a microplate reader.

[1] = tested on: HCT15 (colon cancer cells); experiment: Inhibition of growth of tumor cells (SRB assay), HCT15; format: cell-based; settings: cultured 48 hours; for Inhibitory effect against growth of cancer cells IC50 HCT15: 0.01-100 μg/mL
Description: as §1, §2

[2] = tested on: MCF7 (breast cancer cells); experiment: Inhibition of growth of tumor cells (SRB assay), MCF7; format: cell-based; settings: 0.01-100 μg/mL, cultured 48 hours
Description: as §1, §2

SK-OV-3 (cancer cells) = experiment: Inhibition of growth of tumor cells (SRB assay), SK-OV-3; format: cell-based; settings: Homo sapiens, SK-OV-3 cells, 0.01-100 μg/mL, cultured 48 hours, read-out: Inhibitory effect against growth of cancer cells IC50 SK-OV-3
Description: as §1, §2

[3] = tested on: MDA-MB-231 (breast cancer cells); experiment: Inhibition of growth of tumor cells (SRB assay), MDA-MB-231; format: cell-based; settings: MDA-MB-231 cells, 0.01-100 μg/mL, cultured 48 hours
Description: as §1, §2

[4] = tested on: HeLa (uterine cancer cells); experiment: Inhibition of growth of tumor cells (SRB assay), HeLa; format: cell-based; settings: 0.01-100 μg/mL, cultured 48 hours
Description: as §1, §2

[5] = tested on: SK-OV-3 (uterine cancer cells); experiment: Inhibition of growth of tumor cells (SRB assay), SK-OV-3; format: cell-based; settings: SK-OV-3 cells, 0.01-100 μg/mL, cultured 48 hours
Description: as §1, §2

mice [6] = experiment: Toxicity test, intraperitoneal injection to mice; format: in vivo; settings: for Mice died: intraperitoneal, 20 mg/kg, 10 mice per group, observed 7 days; for Cause of the death of the mice: right after the intraperitoneal injection
Description: (§3) Toxicity test was performed as follows for the Androsace umbellata Merr. extract, fraction thereof and saxifragifolins B and D of the present invention.
(§4) Each of the Androsace umbellata Merr. extract, fraction thereof and saxifragifolins D and B was dissolved in 1% sodium carboxymethlycellulose and diluted with water. The solution was intraperitoneally injected to mice (10 per each group) at a dose of 0, 0.016, 0.8, 4, 20 and 100 mg/kg. […] No mouse died in the Androsace umbellata Merr. extract group. All the 10 mice of the 100 mg/kg Androsace umbellata Merr. fraction group died right after the administration and two died in the 20 mg/kg group. 3 mice died in each of the 20 mg/kg saxifragifolin B and saxifragifolin D groups. No more mice died until the 7th day. […] When the Androsace umbellata Merr. extract, fraction thereof and saxifragifolins D and B were dissolved in corn oil and orally administered at a dose of 1, 10 and 100 mg/kg, no mice died for 7 days.

mice [7] = experiment: Toxicity test, oral administration to mice; format: in vivo; settings: orally, in corn oil, 1, 10 and 100 mg/kg, 7 days
Description: as §3, §4

Row | Compound | IC50 (A549 (lung cancer cells); Homo sapiens, read-out: Inhibitory effect against growth of cancer cells IC50 A549) [µg/mL] | IC50 ([1]; Homo sapiens, HCT-15, 0.01-100 μg/mL, read-out: Inhibitory effect against growth of cancer cells IC50 HCT15) [µg/mL] | IC50 ([2]; Homo sapiens, read-out: Inhibitory effect against growth of cancer cells IC50 MCF7) [µg/mL] | IC50 (SK-OV-3 (cancer cells)) [µg/mL] | IC50 ([3]; Homo sapiens, read-out: Inhibitory effect against growth of cancer cells IC50 MDA-MB-231) [µg/mL] | IC50 ([4]; Homo sapiens, read-out: Inhibitory effect against growth of cancer cells IC50 HeLa) [µg/mL] | Inhibitory effect against growth of cancer cells IC50 A549 (A549 (lung cancer cells)) [µg/mL] | Inhibitory effect against growth of cancer cells IC50 HCT15 [1] [µg/mL] | Inhibitory effect against growth of cancer cells IC50 MCF7 [2] [µg/mL] | Inhibitory effect against growth of cancer cells IC50 SK-OV-3 [5] [µg/mL] | Inhibitory effect against growth of cancer cells IC50 MDA-MB-231 [3] [µg/mL] | Inhibitory effect against growth of cancer cells IC50 HeLa [4] [µg/mL] | Mice died (mice [6]) [mice] | Cause of the death of the mice (mice [6]) | Mice died (mice [7])
1 | COc1cccc2c1C(=O)c1c(O)c3c(c(O)c1C2=O)C[C@@](O)(C(=O)CO)C[C@@H]3O[C@H]1C[C@H](N)[C@H](O)[C@H](C)O1 [Doxorubicin, reference compound] | 0.011 ± 0.01 (≈ 0.0202 µM) | 0.014 ± 0.02 (≈ 0.0258 µM) | 0.5 ± 0.02 (≈ 0.92 µM) | 0.77 ± 0.03 (≈ 1.42 µM) | 0.02 ± 0.01 (≈ 0.0368 µM) | 0.21 ± 0.01 (≈ 0.386 µM) |  |  |  |  |  |  |  |  | 
2 | cyclamiretin A 3-O-{β-D-glucopyranosyl-(1→4)-β-D-glucopyranosyl-(1→2)-β-D-xylopyranosyl-(1→2)-β-D-glucopyranosyl-(1→4)-α-L-arabinopyranoside} [Saxifragifolin D] |  |  |  |  |  |  | 0.016 ± 0.01 | 0.558 ± 0.24 | 3.23 ± 0.10 | 6.36 ± 0.12 | 1.32 ± 0.03 | 0.98 ± 0.05 | 3 | hemolysis of red blood cells | no mice died
3 | cyclamiretin A 3-O-{β-D-xylopyranosyl-(1→2)-β-D-glucopyranosyl-(1→4)-β-D-glucopyranosyl-(1→2)-α-L-arabinopyranoside} [Saxifragifolin B] |  |  |  |  |  |  | 0.036 ± 0.02 | 0.183 ± 0.17 | 6.88 ± 0.13 | 8.39 ± 0.23 | 3.02 ± 0.02 | 1.22 ± 0.04 | 3 | hemolysis of red blood cells | no mice died
